In data set [1] the test system is Swiss CD-1 mice. The data set is described as follows: Open-field (OF) test, center versus periphery (anxiety-like behavior). As to conditions: 10 mg/kg i.p. The format is in vivo. As to the method:
Male Swiss CD-1 mice (Janvier, Le Genest, France) weighing 30–35 g (6–8 weeks old), housed in temperature-controlled conditions (22 ± 1 °C) under a 12 h light/dark cycle and with free access to food and drinking water (standard laboratory diet, Panlab SL, Barcelona, Spain), were randomly assigned to an experimental group. Efforts were made to minimize animal use and suffering.
The anxiety-like effects of the test compounds were assessed through an OF test as described.[64] Animals were placed individually in the center of an open-field arena (25 cm length × 25 cm width × 40 cm height), and the time spent, in seconds, in the center (8 × 8 cm) or the periphery of the arena was monitored for 60 min (Smart 3.0 Panlab, Barcelona, Spain).

Data set [2] relates to Swiss CD-1 mice. On the set-up: method as in PMID 33155384. Conditions: 10 and 25 mg/kg injections; cited from earlier work.
Data set [3] relates to Swiss CD-1 mice. Set-up: method as in PMID 32535718. Conditions: 4 and 16 mg/kg subcutaneous injections; cited from earlier work.
Data set [4] deals with NGF-differentiated PC12 cells. The data set is described as follows: Cytotoxicity in NGF-differentiated PC12 cells, WST-8 cell viability assay. The format is cell-based. As to conditions: WST-8, 0.01–8.00 mM, 24 h. As for the experimental part:
Pheochromocytoma cells (PC12) cells were cultured in collagen-coated dishes in DMEM supplemented with heat-inactivated 5% FBS, 10% horse serum, 10 mM HEPES, 2 mM glutamine, 25 UI/mL penicillin, and 25 μg/mL streptomycin (maintenance medium) and grown at 37 °C in a humidified 5% CO2 atmosphere. Cell differentiation was performed as described[54] with minor modifications. In brief, cells were seeded (250.000 cells/well) onto 96-well plates in the maintenance medium, and after 24 h, the medium was changed to a differentiation medium containing 50 ng/mL NGF. After 24 h, neurite outgrowth was already apparent.
Treatments with different concentrations of the drug in DMEM were performed 48 h after cell differentiation. 10 μL of the tested drug was added per well, in triplicate, and cells were incubated for 24 h at 37 °C in a humidified 5% CO2 atmosphere. Thereafter, the medium was removed and immediately replaced with a maintenance medium. 10 μL of the CCK-8 Cell Counting Kit, based on 2-(2-methoxy-4-nitrophenyl)-3-(4-nitrophenyl)-5-(2,4-disulfophenyl)-2H-tetrazolium, monosodium salt (WST-8), was added per well and was incubated for 2 h at 37 °C in a humidified 5% CO2 atmosphere. This method has been defined as a good alternative to the 3-(4,5-dimethylthiazol-2-yl)-2,5-diphenyltetrazoliumbromide (MTT) assay.[63] Optical density was measured at 450 nm, using a microplate reader.
For in vitro assays, data were normalized with 100% defined as the mean of the technical replicates in the control group and expressed as mean ± SEM. Nonlinear regression was used to fit the different competition curves. Data were plotted and best fitted to a sigmoidal dose–response curve from which an IC50 or LC50 value was obtained. Transporter ratios were calculated as (1/DAT IC50: 1/SERT IC50). Although IC50 values at inhibiting 5-HT uptake for some compounds tested are expressed as >100 μM for clarity purposes, DAT/SERT ratios were calculated with the original raw data. The Cheng–Prusoff equation was used to calculate Ki (affinity): Ki = EC50/(1 + [radioligand concentration/Kd]).[65] The sample size for behavioral experiments was determined using GPower software. One-way or two-way ANOVA, and subsequent Tukey’s posthoc test, conducted only if F was significant, was used to determine the effects of cathinones on cytotoxicity, HLA, OF, and CPP experiments. The α error probability was set at 0.05 (p < 0.05). The exact size group for the behavioral experiments is shown in the corresponding figure legends. All statistic calculations were carried out using GraphPad Prism (GraphPad software, San Diego, CA, USA).

The structures appear in SMILES notation.

For the molecule `CCCCC(NCC)C(=O)c1ccccc1` (stereo not shown) [NEH, N-ethyl-hexedrone], in the data set on Swiss CD-1 mice [1], the “anxiogenic effect in OF test” value is on record as “acute anxiogenic effects”. In addition, the locomotor activity result in the data set with Swiss CD-1 mice [2] is given as “increase in locomotor activity”. Further, the CPP result in the data set with Swiss CD-1 mice [3] is listed as “significant CPP”.
As to `CCCCCC(NCC)C(=O)c1ccccc1` (stereo not shown) [NEHP, N-ethyl-heptedrone], the “concentration at which cytotoxicity starts” value in data set [4] came to 100 µM.

The record behind these values is publication PMC9936538, “Structure–Activity Relationship of N-Ethyl-Hexedrone Analogues: Role of the α-Carbon Side-Chain Length in the Mechanism of Action, Cytotoxicity, and Behavioral Effects in Mice” (ACS Chemical Neuroscience, 2023).
